Results from patent US7763657B2, “Compounds, isomer thereof, or pharmaceutically acceptable salts thereof as vanilloid receptor antagonist; and pharmaceutical compositions containing the same” (Amorepacific Corporation, priority 2005, dated 2010).
pIC50: −log10 of the molar value.

Molecular target: T1, vanilloid receptor (Rattus norvegicus, UniProt O35433)
T1 construct: DRG nerve cells from the primary culture of 2 days were equilibrated; endogenous in cells; host or cells: primary cultured dorsal root ganglion neurons of neonatal SD rats
T1 sequence (O35433 whole entry): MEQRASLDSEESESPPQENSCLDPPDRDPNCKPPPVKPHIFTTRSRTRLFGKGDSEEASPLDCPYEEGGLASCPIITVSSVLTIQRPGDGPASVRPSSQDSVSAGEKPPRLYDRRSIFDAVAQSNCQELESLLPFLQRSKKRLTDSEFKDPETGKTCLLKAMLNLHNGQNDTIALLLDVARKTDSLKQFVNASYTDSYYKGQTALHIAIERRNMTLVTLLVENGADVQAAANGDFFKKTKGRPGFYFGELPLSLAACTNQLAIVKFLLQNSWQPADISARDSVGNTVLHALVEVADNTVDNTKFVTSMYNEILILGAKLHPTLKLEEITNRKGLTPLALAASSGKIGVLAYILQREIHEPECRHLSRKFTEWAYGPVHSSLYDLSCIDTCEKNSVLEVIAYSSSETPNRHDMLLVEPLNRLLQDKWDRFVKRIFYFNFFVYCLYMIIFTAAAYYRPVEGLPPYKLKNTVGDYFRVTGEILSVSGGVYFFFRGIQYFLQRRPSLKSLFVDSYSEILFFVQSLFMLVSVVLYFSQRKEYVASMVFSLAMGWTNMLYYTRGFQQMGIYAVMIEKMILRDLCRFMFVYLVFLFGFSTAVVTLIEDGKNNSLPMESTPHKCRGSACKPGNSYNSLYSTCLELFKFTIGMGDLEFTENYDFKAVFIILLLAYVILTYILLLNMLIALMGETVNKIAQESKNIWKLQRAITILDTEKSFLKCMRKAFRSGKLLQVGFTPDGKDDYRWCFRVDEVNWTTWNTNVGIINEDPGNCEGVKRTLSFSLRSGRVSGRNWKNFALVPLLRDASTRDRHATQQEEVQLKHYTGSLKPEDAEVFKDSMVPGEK
Assay: 45Ca influx test (calcium uptake) in primary cultured DRG neurons, antagonism of capsaicin
Format: cell-based
Conditions: neonatal SD rat DRG nerve cells; capsaicin 0.5 μM; 45Ca 10 μCi/ml; 10 mins room temperature; read-out: Antagonist Calcium Uptake Test (IC50)
Method: 1) Separation of Spinal Dorsal Root Ganglia (DRG) in Newborn Rats and Primary Culture Thereof
Neonatal (2-3 day old or younger than 2-3 day old) SD rats were put in ice for 5 minutes to anesthetize and disinfected with 70% ethanol. […] The DRG were incubated sequentially at 37° C. for 30 min in 200 U/ml collagenase and 2.5 mg/ml trypsin, separately. The ganglia were washed twice with DME/F12 medium supplemented with 10% horse serum, triturated through a fire-polished Pasteur pipette, filtered through Nitex 80 membrane to obtain single cell suspension and the suspension was washed once more. This was subjected to centrifugation, then resuspended in cell culture medium at certain level of cell density. As the cell culture medium, DME/F12 medium supplemented with 10% horse serum was diluted with identical medium conditioned by C6 glioma cells 2 days on a confluent monolayer (1:1), and NGF (Nerve Growth Factor) was added to adjust 200 ng/ml as final concentration. After the cells were grown 2 days in medium where cytosine arabinoside (Ara-C, 100 μM) was added to kill dividing nonneuronal cells, medium was changed to one without Ara-C. The resuspended cells were plated at a density of 1500-2000 neurons/well onto Terasaki plates previously coated with 10 μg/ml poly-D-ornithine.
2) ^45Ca Influx Experiments
DRG nerve cells from the primary culture of 2 days were equilibrated by washing 4 times with HEPES (10 mM, pH 7.4)-buffered Ca^2+, Mg^2+-free HBSS (H—HBSS). The solution in each well was removed from the individual well. Medium containing the test compound plus capsaicin (final concentration 0.5 μM) and ^45Ca (final concentration 10 μCi/ml) in H—HBSS was added to each well and incubated at room temperature for 10 mins. Terasaki plates were washed five times with H—HBSS and dried at room temperature. To each well, 0.3% SDS (10 μl) was added to elute ^45Ca. After the addition of scintillation cocktail of into each well, the amount of ^45Ca influx into neuron was measured by counting radioactivity.

pIC50 | Structure (SMILES)
6.80 | C=Cc1cc(CNC(=O)NCc2ccc(C(C)(C)C)cc2)ccc1NS(C)(=O)=O [Example 1, N-{4-[3-(4-t-butylbenzyl)ureidomethyl]-2-vinylphenyl}methanesulfonamide]
6.74 | C#Cc1cc(CNC(=O)NCc2ccc(C(C)(C)C)cc2)cc(F)c1NS(C)(=O)=O [Example 3, N-{4-[3-(4-t-butylbenzyl)ureidomethyl]-2-ethynyl-6-fluorophenyl}methanesulfonamide]
6.77 | C=Cc1cc(CNC(=O)NCc2ccc(C(C)(C)C)cc2)c(Cl)cc1NS(C)(=O)=O [Example 4, N-{4-[3-(4-t-butylbenzyl)ureidomethyl]-5-chloro-2-vinylphenyl}methanesulfonamide]
6.31 | C#Cc1cc(CNC(=O)NCc2ccc(C(C)(C)C)cc2)c(Cl)cc1NS(C)(=O)=O [Example 5, N-{4-[3-(4-t-butylbenzyl)ureidomethyl]-5-chloro-2-ethynylphenyl}methanesulfonamide]
7.41 | C=Cc1cc([C@@H](C)NC(=O)NCc2ccc(C(C)(C)C)cc2)cc(F)c1NS(C)(=O)=O [Example 7, (R)—N-(4-{1-[3-(4-tert-Butyl-benzyl)-ureido]-ethyl}-2-fluoro-6-vinyl-phenyl)-methanesulfonamide]
6.51 | C=Cc1cc(CNC(=O)NCc2ccc(C(C)(C)C)cc2)cc(C)c1NS(C)(=O)=O [Example 8, N-{4-[3-(4-tert-Butyl-benzyl)-ureidomethyl]-2-methyl-6-vinyl-phenyl}-methanesulfonamide]
6.89 | C=Cc1cc(CNC(=O)NCc2ccc(C(C)(C)C)cc2)cc(Cl)c1NS(C)(=O)=O [Example 9, N-{4-[3-(4-tert-Butyl-benzyl)-ureidomethyl]-2-chloro-6-vinyl-phenyl}-methanesulfonamide]
7.10 | C=Cc1cc([C@@H](C)NC(=O)C#Cc2ccc(C(C)(C)C)cc2)ccc1NS(C)(=O)=O [Example 11, 3-(4-t-butylphenyl)-N-[1-(R)-(4-methanesulfonylamino-3-vinylphenyl)ethyl]propiolicamide]
7.06 | C=Cc1cc(CNC(=O)C#Cc2ccc(C(C)(C)C)cc2)cc(F)c1NS(C)(=O)=O [Example 12, 3-(4-tert-Butylphenyl)propynoic acid 3-fluoro-4-methanesulfonylamino-5-vinylbenzylamide]
6.82 | C=Cc1cc([C@@H](C)NC(=O)C#Cc2ccc(C(C)(C)C)cc2)cc(F)c1NS(C)(=O)=O [Example 13, 3-(4-tert-Butylphenyl)propynoic acid N-[1-(3-fluoro-4-methanesulfonylamino-5-vinylphenyl)ethyl]amide]
6.80 | C=Cc1cc(CNC(=O)/C=C/c2ccc(C(C)(C)C)cc2)cc(Cl)c1NS(C)(=O)=O [Example 21, 3-(4-tert-Butylphenyl)-N-(3-chloro-4-methanesulfonylamino-5-vinylbenzyl)acrylamide]
6.60 | C=Cc1cc(CNC(=O)/C=C/c2ccc(C(C)(C)C)cc2N2CCOCC2)cc(F)c1NS(C)(=O)=O [Example 22, 3-(4-tert-Butyl-2-morpholin-4-yl-phenyl)-N-(3-fluoro-4-methanesulfonylamino-5-vinylbenzyl)acrylamide]
7.17 | C=Cc1cc(CNC(=O)/C=C/c2ccc(C(C)(C)C)cc2OCCOC)cc(F)c1NS(C)(=O)=O [Example 23, 3-[4-tert-Butyl-2-(2-methoxy-ethoxy)-phenyl]-N-(3-fluoro-4-methanesulfonylamino-5-vinyl-benzyl)-acrylamide]
7.12 | C=Cc1cc(CNC(=O)/C=C/c2ccc(C(C)(C)C)cc2NCCOC)cc(F)c1NS(C)(=O)=O [Example 27, 3-[4-tert-Butyl-2-(2-methoxyethylamino)phenyl]-N-(3-fluoro-4-methanesulfonylamino-5-vinylbenzyl)acrylamide]
7.14 | C=Cc1cc(CNC(=O)/C=C/c2ccc(C(C)(C)C)cc2OC)cc(F)c1NS(C)(=O)=O [Example 28, 3-(4-tert-Butyl-2-methoxyphenyl)-N-(3-fluoro-4-methanesulfonylamino-5-vinyl-benzyl)acrylamide]
7.17 | C=CCOc1cc(C(C)(C)C)ccc1/C=C/C(=O)NCc1cc(F)c(NS(C)(=O)=O)c(C=C)c1 [Example 30, 3-(2-Allyloxy-4-tert-butylphenyl)-N-(3-fluoro-4-methanesulfonylamino-5-vinylbenzyl)acrylamide]
6.31 | C=Cc1cc(CNC(=O)/C=C/c2ccc(C(C)(C)C)cc2NCCC(C)C)cc(F)c1NS(C)(=O)=O [Example 32, 3-[4-tert-butyl-2-(3-methylbutylamino)phenyl]-N-(3-fluoro-4-methanesulfonylamino-5-vinylbenzyl)acrylamide]
6.77 | C=Cc1cc(CNC(=O)/C=C/c2ccc(C(C)(C)C)cc2NC(C)C)cc(F)c1NS(C)(=O)=O [Example 34, 3-(4-tert-Butyl-2-isopropylaminophenyl)-N-(3-fluoro-4-methanesulfonylamino-5-vinylbenzyl)acrylamide]
7.48 | C=Cc1cc([C@@H](C)NC(=O)CCc2ccc(C(C)(C)C)cc2)cc(F)c1NS(C)(=O)=O [Example 35, (R)-3-(4-tert-Butylphenyl)-N-[1-(3-fluoro-4-methanesulfonylamino-5-vinylphenyl)ethyl]propionamide]
7.27 | C=Cc1cc([C@@H](C)NC(=O)/C=C/c2ccc(C(C)(C)C)cc2)cc(F)c1NS(C)(=O)=O [Example 36, (R)-3-(4-tert-Butylphenyl)-N-[1-(3-fluoro-4-methanesulfonylamino-5-vinylphenyl)ethyl]acrylamide]
7.31 | C=Cc1cc(CNC(=O)/C(C)=C/c2ccc(C(C)(C)C)cc2)cc(F)c1NS(C)(=O)=O [Example 37, 3-(4-tert-Butylphenyl)-N-(3-fluoro-4-methanesulfonylamino-5-vinylbenzyl)-2-methylacrylamide]
6.57 | C=Cc1cc(CNC(=O)/C(F)=C/c2ccc(C(C)(C)C)cc2)cc(F)c1NS(C)(=O)=O [Example 38, 3-(4-tert-Butylphenyl)-2-fluoro-N-(3-fluoro-4-methanesulfonylamino-5-vinylbenzyl)acrylamide]
6.54 | C=Cc1cc(CNC(=O)/C=C/c2ccc(C(C)(C)C)cc2OC2CCOCC2)cc(F)c1NS(C)(=O)=O [Example 40, 3-[4-tert-Butyl-2-(tetrahydropyran-4-yloxy)phenyl]-N-(3-fluoro-4-methanesulfonylamino-5-vinylbenzyl)acrylamide]
7.66 | C=Cc1cc([C@@H](C)NC(=O)/C(C)=C/c2ccc(C(C)(C)C)cc2)ccc1NS(C)(=O)=O [Example 42, (R)-3-(4-tert-Butylphenyl)-N-[1-(4-methanesulfonylamino-3-vinylphenyl)ethyl]-2-methylacrylamide]
7.17 | C=Cc1cc(CNC(=O)C(C)Cc2ccc(C(C)(C)C)cc2)cc(F)c1NS(C)(=O)=O (stereo not drawn) [Example 43, 3-(4-tert-Butylphenyl)-N-(3-fluoro-4-methanesulfonylamino-5-vinylbenzyl)-2-methylpropionamide]
6.77 | C#Cc1cc(CNC(=O)CCc2ccc(C(C)(C)C)cc2)cc(F)c1NS(C)(=O)=O [Example 47, 3-(4-tert-butyl-phenyl)-N-(3-ethynyl-5-fluoro-4-methanesulfonylamino-benzyl)-propionamide]
7.00 | C=Cc1cc([C@@H](C)NC(=O)Nc2ccc(C(C)(C)C)cc2)ccc1NS(C)(=O)=O [Example 53, (R)—N-(4-{1-[3-(4-tert-Butylphenyl)ureido]ethyl}-2-vinylphenyl)methanesulfonamide]
6.77 | C#Cc1cc([C@@H](C)NC(=O)Nc2ccc(C(C)(C)C)cc2)ccc1NS(C)(=O)=O [Example 55, (R)—N-(4-{1-[3-(4-tert-Butylphenyl)ureido]ethyl}-2-ethynylphenyl)methanesulfonamide]
6.30 | C=Cc1cc(CNC(=O)Nc2ccc(C(C)(C)C)cc2)cc(F)c1NS(C)(=O)=O [Example 57, N-{4-[3-(4-tert-Butylphenyl)ureidomethyl]-2-fluoro-6-vinylphenyl}methanesulfonamide]
6.35 | C=Cc1cc([C@@H](C)NC(=O)Nc2ccc(C(C)(C)C)cc2)ccc1NS(=O)(=O)C=C [Example 58, Ethenesulfonic Acid (4-{1-[3-(4-tert-butylphenyl)ureido]ethyl}-2-vinylphenyl)amide]
